According to patent US20020169111A1, “Reversal of multidrug resistance in human colon carcinoma cells” (American Cyanamid Comany, priority 1998, published 2002):
Where two headings read alike, the source gives them in different places.

Assays:
S1-M1-3.2 cells [1] = settings: for concentration giving 40% cell death (compound alone) / activity in the reversal assay compared to FTC, fold lower / Per Cent Survival with 3.2 μM mitoxantrone / Per Cent Survival Alone / Difference Score: S1-M1-3.2 cells; for activity in the reversal assay compared to FTC, fold lower: Table 7 versus Table 8; for Per Cent Survival Alone: 3 days; for Difference Score: survival alone minus survival with 3.2 μM mitoxantrone; for Toxicity (>20%): compound alone, concentration that causes greater than 20% cell death of S1-M1-3.2 cells; for IC50: read-out: IC50 (μM), resensitizing S1-M1-3.2 cells to mitoxantrone, with 3.2 μM mitoxantrone, 50% cancer cell death
Description: One of the first reported molecules with reversing activity was verapamil, a calcium channel blocker. […] Cells were plated into 96-well dishes (100 μl/well) in growth medium supplemented with 5% FBS. […] Reversal agents were tested from 0.1-80 μM (triplicate points per dose). In parallel wells, cells were grown in the presence of the reversal agent alone.
The Difference Score is the difference in the percentage of cells surviving when the drug was given alone minus the percentage of cells surviving when the drug was given along with the antitumor agent.
Cell survival was estimated using the Sulforhodamine (SRB) assay.

S1-M1-3.2 cells [2] = test: Cytotoxicity of antitumor agents, 3-day SRB assay, mitoxantrone-selected cells; format: cell-based, human; settings: relative to S1; 2-7 independent experiments
Description: Cells were cultured for three days in the presence of the antitumor agent (triplicate points per dose). Following a 3-day growth period, cells were fixed in 10% trichloroacetic acid (TCA) for 1 hour, washed extensively with water, and cell-associated protein was stained using 0.1% sulforhodamine B (SRB), a protein binding reagent [Rubinstein et al., Journal of the National Cancer Institute 82, 1113-1118 (1990) and Skehan et al., Journal of the National Cancer Institute 82, 1107-1112 (1990)]. Excess reagent was removed by washing plates in 5% acetic acid, the dye was solubilized in 10 mM Tris base, and absorbance determined in a UV Max spectrophotometer (Molecular Devices, Menlo Park, Calif.) at 540 nm. Cell survival was estimated relative to control wells (no drugs). EC50 values (μM) were estimated from cytotoxicity curves. For S1, the values shown [mean ±SE (number of independent observations)] are taken from Zhang et al., “P-Glycoprotein Mediates Profound Resistance to Bisantrene,” Oncol. Res., 6:291-301, 1994. Values for S1-M1-3.2 are compiled from 2-7 independent experiments.

Row | Structure (SMILES) | Per Cent Survival with 3.2 μM mitoxantrone (S1-M1-3.2 cells [1]; drug 0.1 μM) [Per Cent] | Per Cent Survival Alone (S1-M1-3.2 cells [1]; drug 0.1 μM alone) [Per Cent] | Per Cent Survival with 3.2 μM mitoxantrone (S1-M1-3.2 cells [1]; drug 0.5 μM) [Per Cent] | Per Cent Survival Alone (S1-M1-3.2 cells [1]; drug 0.5 μM alone) [Per Cent] | Per Cent Survival with 3.2 μM mitoxantrone (S1-M1-3.2 cells [1]; drug 1 μM) [Per Cent] | Per Cent Survival Alone (S1-M1-3.2 cells [1]; drug 1 μM alone) [Per Cent] | Per Cent Survival with 3.2 μM mitoxantrone (S1-M1-3.2 cells [1]; drug 5 μM) [Per Cent] | Per Cent Survival Alone (S1-M1-3.2 cells [1]; drug 5 μM alone) [Per Cent] | Per Cent Survival with 3.2 μM mitoxantrone (S1-M1-3.2 cells [1]; drug 10 μM) [Per Cent] | Per Cent Survival Alone (S1-M1-3.2 cells [1]; drug 10 μM alone) [Per Cent] | Per Cent Survival with 3.2 μM mitoxantrone (S1-M1-3.2 cells [1]; drug 20 μM) [Per Cent] | Per Cent Survival Alone (S1-M1-3.2 cells [1]; drug 20 μM alone) [Per Cent] | Per Cent Survival with 3.2 μM mitoxantrone (S1-M1-3.2 cells [1]; drug 40 μM) [Per Cent] | Per Cent Survival Alone (S1-M1-3.2 cells [1]; drug 40 μM alone) [Per Cent] | Per Cent Survival with 3.2 μM mitoxantrone (S1-M1-3.2 cells [1]; drug 80 μM) [Per Cent] | Per Cent Survival Alone (S1-M1-3.2 cells [1]; drug 80 μM alone) [Per Cent] | S1-M1-3.2 (relative resistance) (S1-M1-3.2 cells [2]) | further results
1 | COc1ccc2c3c4n(c2c1)[C@@H](C=C(C)C)OOC(C)(C)C[C@@H]4N1C(=O)[C@@H]2CCCN2C(=O)[C@]1(O)[C@H]3OCC=C(C)C [Fumitremorgin A] | 96 ± 2 | 95 ± 1 | 95 ± 4 | 96 ± 2 | 94 ± 5 | 96 ± 1 | 64 ± 4 | 96 ± 1 | 40 ± 6 | 89 ± 9 | 35 ± 5 | 59 ± 4 | 34 ± 4 | 50 ± 8 | 34 ± 4 | 41 ± 8 |  | concentration giving 40% cell death (compound alone) (S1-M1-3.2 cells [1]): 20 µM; activity in the reversal assay compared to FTC, fold lower (S1-M1-3.2 cells [1]): 20 fold; Difference Score (S1-M1-3.2 cells [1]; drug 0.1 μM): −1; Difference Score (S1-M1-3.2 cells [1]; drug 0.5 μM): 1; Difference Score (S1-M1-3.2 cells [1]; drug 1 μM): 2; Difference Score (S1-M1-3.2 cells [1]; drug 5 μM): 32; Difference Score (S1-M1-3.2 cells [1]; drug 10 μM): 49; Difference Score (S1-M1-3.2 cells [1]; drug 20 μM): 24; Difference Score (S1-M1-3.2 cells [1]; drug 40 μM): 16; Difference Score (S1-M1-3.2 cells [1]; drug 80 μM): 7; Toxicity (>20%) (S1-M1-3.2 cells [1]): 15.0 µM; IC50 (S1-M1-3.2 cells [1]): 7 µM
2 | COc1ccc2c3c(n(CC=C(C)C)c2c1)[C@H](C=C(C)C)N1C(=O)[C@@H]2CCCN2C(=O)[C@]1(O)[C@H]3O [Fumitremorgin B] | 91 ± 5 | 94 ± 1 | 90 ± 3 | 95 ± 2 | 87 ± 1 | 93 ± 0 | 51 ± 4 | 90 ± 2 | 35 ± 1 | 91 ± 4 | 29 ± 1 | 59 ± 10 | 20 ± 2 | 41 ± 7 | 10 ± 1 | 16 ± 2 |  | concentration giving 40% cell death (compound alone) (S1-M1-3.2 cells [1]): 20 µM; activity in the reversal assay compared to FTC, fold lower (S1-M1-3.2 cells [1]): 14 fold; Difference Score (S1-M1-3.2 cells [1]; drug 0.1 μM): 3; Difference Score (S1-M1-3.2 cells [1]; drug 0.5 μM): 5; Difference Score (S1-M1-3.2 cells [1]; drug 1 μM): 6; Difference Score (S1-M1-3.2 cells [1]; drug 5 μM): 39; Difference Score (S1-M1-3.2 cells [1]; drug 10 μM): 56; Difference Score (S1-M1-3.2 cells [1]; drug 20 μM): 30; Difference Score (S1-M1-3.2 cells [1]; drug 40 μM): 21; Difference Score (S1-M1-3.2 cells [1]; drug 80 μM): 6; Toxicity (>20%) (S1-M1-3.2 cells [1]): 15.0 µM; IC50 (S1-M1-3.2 cells [1]): 5 µM
3 | COc1cc([C@@H]2c3cc4c(cc3[C@@H](O[C@@H]3O[C@@H]5CO[C@@H](c6cccs6)O[C@H]5[C@H](O)[C@H]3O)[C@H]3COC(=O)[C@H]23)OCO4)cc(OC)c1O [VM-26, teniposide] |  |  |  |  |  |  |  |  |  |  |  |  |  |  |  |  | 18 | 
4 | COc1ccc(CCN(C)CCCC(C#N)(c2ccc(OC)c(OC)c2)C(C)C)cc1OC (stereo not drawn) [Verapamil, reference compound] | 98 ± 0 | 100 ± 1 | 98 ± 1 | 99 ± 1 | 98 ± 1 | 97 ± 2 | 97 ± 0 | 98 ± 5 | 94 ± 0 | 103 ± 4 | 93 ± 2 | 99 ± 4 | 83 ± 3 | 93 ± 6 | 58 ± 4 | 80 ± 24 |  | reversal activity in S1-M1-3.2 cells (in words) (S1-M1-3.2 cells [1]): not reversed
5 | C(=N\NC1=NCCN1)/c1c2ccccc2c(/C=N/NC2=NCCN2)c2ccccc12 [bisantrene] |  |  |  |  |  |  |  |  |  |  |  |  |  |  |  |  | 24 | 
6 | COc1cc([C@@H]2c3cc4c(cc3[C@@H](O[C@@H]3O[C@@H]5CO[C@@H](C)O[C@H]5[C@H](O)[C@H]3O)[C@H]3COC(=O)[C@H]23)OCO4)cc(OC)c1O [etoposide] |  |  |  |  |  |  |  |  |  |  |  |  |  |  |  |  | 6 | 
7 | COc1cc(NS(C)(=O)=O)ccc1Nc1c2ccccc2nc2ccccc12 [m-AMSA] |  |  |  |  |  |  |  |  |  |  |  |  |  |  |  |  | 11 | 
8 | CC[C@]1(O)C[C@@H]2CN(CCc3c([nH]c4ccccc34)[C@@](C(=O)OC)(c3cc4c(cc3OC)N(C)[C@H]3[C@@](O)(C(=O)OC)[C@H](OC(C)=O)[C@]5(CC)C=CCN6CC[C@]43[C@@H]65)C2)C1 [vinblastine] |  |  |  |  |  |  |  |  |  |  |  |  |  |  |  |  | 3 | 
